Results taken from US20220280601A1, “METHOD FOR TREATMENT OF HEPATIC CANCER USING REIC/Dkk-3 GENE IN COMBINATION WITH ANTI-TUMOR AGENT” (Momotaro-Gene Inc., priority 2019, published 2022).

Tests used:
[1] = tested on: Hep3B cells; test: MTT cell viability assay, Hep3B; type: cell-based; settings: 72 hours
Protocol: (§1) The hepatic cancer cell lines Hep3B and Huh7 (hereafter, referred to as “Hep3B cells” and “Huh7 cells,” respectively, according to need) were purchased from the Japanese Cancer Resources Bank (Tokyo, Japan). The cells were maintained in Dulbecco's Modified Eagle's Medium supplemented with 10% FBS, 1% non-essential amino acid, 1% penicillin/streptomycin, and amphotericin B (0.5 μg/ml). The cells were cultured in accordance with a conventional technique in a humidified 5% CO2 incubator at 37° C. When the cells reached subconfluency, they were pretreated in a medium containing 0.1% dialyzed FBS for 24 hours before experimentation and then subjected to experimentation. […]
(§2) The hepatic cancer cell lines Hep3B and Huh7 were cultured in the presence or absence of Ad-LacZ or Ad-REIC for 72 hours. Cell viability was evaluated via MTT assays. […] Mitochondrial activity reflecting cell viability was evaluated by measuring the absorbance at 570 nm using a microplate reader. […]
(§3) Hep3B cells and Huh7 cells were cultured in the presence or absence of Cisplatin (1 μg/ml) for 72 hours and in the presence or absence of Ad-Lac Z (MOI of 50) or Ad-REIC (MOI of 50). Cell viability was evaluated by the MTT assays described above. […]

[2] = tested on: JNK signal transmission pathway (p-ASK1, p-IRE1α, p-JNK, p-c-Jun) in Huh7 cells; test: Immunoblot analysis of the JNK signal transmission pathway; type: cell-based; settings: Huh7, lysates 48 hours after transfection, regardless of the presence or absence of Ad-REIC (MOI of 10)
Protocol: The mechanism of Ad-REIC for apoptosis induction was examined. By performing immunoblotting, activation of signal transmission molecules in the JNK signal transmission pathway by Ad-REIC and Cisplatin was evaluated. Ad-LacZ and Ad-REIC at MOI of 10 each were transfected into the Hep3B cells and the Huh7 cells, and cell lysates were collected 48 hours thereafter. Protein expression of phospho-ASK1 (p-ASK1), phospho-IRE1α (p-IRE1α), phospho-JNK (p-JNK), and phospho-c-Jun (p-c-Jun) β-actin was analyzed via immunoblotting using specific antibodies. Immunoblotting of β-actin was performed to examine equal loading of proteins in the cells.

[3] = tested on: mouse hepatocellular cancer cell line Hep1-6 allograft; test: Tumor growth assay in allograft mouse model (Hep1-6), Ad-REIC with Cisplatin; type: in vivo, C57BL/6 mice; settings: Ad-REIC 1.0×10^9 pfu intratumorally Days 14, 16, Cisplatin 1 mg/kg intraperitoneally Days 14, 21, control PBS
Source text: C57BL/6 female mice (6- to 8-week-old) were purchased from Japan SLC Inc. and maintained with free access to feeds and water in the SPF environment in Okayama University animal experimentation facility. Mice were adapted to the breeding environment over a period of 1 week or longer before the experimentation was initiated. Mice were bred and treated under the strictly controlled conditions in accordance with the guidelines provided by the institutional animal control committee, Okayama University Medical School.
The mouse hepatocellular cancer cell line Hep1-6 ([…], suspended in 200 μl of PBS) were injected into the right flanks of the C57BL/6 mice (Day 0). When the tumor diameters reached 5 to 10 mm, administration of Ad-REIC and Cisplatin was initiated. Ad-REIC (1.0×10^9 pfu) was administered intratumorally on Days 14 and 16. Cisplatin (1 mg/kg) was administered intraperitoneally on Days 14 and 21. Tumor sizes were measured 2 times a week, and tumor volumes were determined.

[4] = tested on: Huh7 cells; test: MTT cell viability assay, Huh7; type: cell-based; settings: 72 hours
Protocol: as §1, §2, §3

[5] = tested on: advanced hepatic cancer; settings: clinical trials, advanced hepatic cancer (Non-Patent Document 1); cited from earlier work

Question: Which results are given for `N.N.[Cl][Pt][Cl]` [Cisplatin]?
Answer: cell viability of Hep3B cells, dependence on amount of Cisplatin [1]: decreased depending on the amount of Cisplatin administered; expression of p-ASK1, p-IRE1α, p-JNK and p-c-Jun (immunoblotting) [2]: each such expression was activated; anti-tumor effects (tumor volume) [3]: the tumor volume was decreased, and anti-tumor effects were observed; cell viability of Huh7 cells, dependence on amount of Cisplatin [4]: decreased depending on the amount of Cisplatin administered

Question: For `CNC(=O)c1cc(Oc2ccc(NC(=O)Nc3ccc(Cl)c(C(F)(F)F)c3)cc2)ccn1` [Sorafenib], which medial survival period [5] is on record?
Answer: 15.6 months
